Source: patent publication US20240408169A1 (priority 2023, published 2024)
*1 amine or outer side, *2 acyl side, *3 side chain or, on linkers, in order; H or OH if unused. Where a SMILES comes first, the peptide text is derived from it. Bridges are numbered along the chain shown (N, C = ends). [ ]: non-standard residue; d: D form. The star is where a group is joined. X90 = CC(=O)N1CC=C(c2ccc(Cl)cc2C[C@@H](C(=O)[*:2])N(C)[*:1])CC1; NMehhhLys(Me) = CN([C@@H](CCCCCCCN(C)[*:3])C(=O)[*:2])[*:1]; X22 = CN([C@@H](Cc1cc(Cl)ccc1-c1cnn(C)c1)C(=O)[*:2])[*:1]; X104 = CN([C@@H](Cc1cc(Cl)ccc1C1=CCOCC1)C(=O)[*:2])[*:1]; NMe(hhhLys) = CN([C@@H](CCCCCCCN[*:3])C(=O)[*:2])[*:1]; cBuCO(3,3-F2-1-CF3) = O=C(C1(C(F)(F)F)CC(F)(F)C1)*; Pro(trans-4-F) = O=C(O)[C@@H]1C[C@@H](F)CN1; Gly(cPr) = N[C@H](C(=O)O)C1CC1

Legend:
OVCAR3 cells = assay: MTT proliferation assay, OVCAR3; type: cell-based; conditions: 5 days compound exposure, 1:3 serial dilution starting at 10 μM;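 note: compound given as an 8- or 10-point series, one day after plating, with exposure covering roughly 3-4 cell doublings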
NCI-H1048 cells = assay: MTT proliferation assay, NCI-H1048; type: cell-based; conditions: 5 days compound exposure, 1:3 serial dilution starting at 10 μM;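 note: Dose-response in 96-well plates over 8 or 10 concentration points, with exposure spanning 3-4 cell doublings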
CyclinA2/CDK2 = target: T1, CyclinA2/CDK2 (Homo sapiens, UniProt P20248); assay: Fluorescence Polarization (FP) competitive binding assay, Cyclin A2/Cdk2; conditions: 8 nM Cyclin A2/Cdk2, 2 nM FAM probe; average of 2-3 independent experiments; read-out: Cyclin A FP IC50;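 note: plates equilibrated two hours at room temperature before polarization reading, IC50 fitted from eight-concentration compound titration curves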
T1 construct: purchased CRELUX Protein Services

WI-38 cells = assay: MTT proliferation assay, WI-38; type: cell-based; conditions: 3 days compound exposure, 1:3 serial dilution starting at 10 μM;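 note: Eight- or ten-point dilution series, with exposure length chosen to span about three to four cell doublings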
CyclinE1/CDK2 = target: T2, CyclinE1/CDK2 (Homo sapiens, UniProt P24864); assay: Fluorescence Polarization (FP) competitive binding assay, Cyclin E1/Cdk2; conditions: 10 nM Cyclin E1/Cdk2, 2 nM FAM probe; average of 2-3 independent experiments; read-out: Cyclin E FP IC50;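 note: readings taken after two-hour equilibration at room temperature in HEPES buffer with NaCl, DTT, NP-40 and BSA, IC50 fitted from eight-concentration serial dilution series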
T2 construct: purchased Eurofins, discovery 14-475

CyclinB1/CDK1 = target: T3, CyclinB1/CDK1 (Homo sapiens, UniProt P14635); assay: Fluorescence Polarization (FP) competitive binding assay, Cyclin B1/Cdk1; conditions: 10 nM Cyclin B1/Cdk1, 2 nM FAM probe; average of 2-3 independent experiments; read-out: Cyclin B FP IC50;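 note: fluorescence polarization read after equilibration at room temperature, with IC50 taken from serially diluted dose-response curves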
T3 construct: purchased Eurofins, discovery 14-450

Compound | GI50 (OVCAR3 cells) [µM] | GI50 (NCI-H1048 cells) [µM] | IC50 (CyclinA2/CDK2) [µM] | GI50 (WI-38 cells) [µM] | IC50 (CyclinE1/CDK2) [µM] | IC50 (CyclinB1/CDK1) [µM]
CC(C)C[C@@H]1NC(=O)[C@@H](N(C)C(=O)[C@@H](NC(=O)[C@@H]2C[C@@H](F)CN2C(=O)C2(C(F)(F)F)CCC2)C2CC2)CC=CCCCCNC(=O)[C@H](Cc2cc(Cl)cnc2OC2CC2)N(C)C1=O (single isomer, unassigned) [Example 107-P1] | 1.01 | 0.7 | 0.25 | 5.29 | 0.54 | 0.02
CC(C)C[C@@H]1NC(=O)[C@@H](N(C)C(=O)[C@@H](NC(=O)[C@@H]2C[C@@H](F)CN2C(=O)C2(C(F)(F)F)CCC2)C2CC2)CC=CCCCCNC(=O)[C@H](Cc2cc(Cl)cnc2OC(C)C)N(C)C1=O (single isomer, unassigned) [Example 136-P1] | 1.77 | 0.83 | 0.14 | 3.96 | 0.32 | 0.02
CC(C)C[C@@H]1NC(=O)[C@@H](N(C)C(=O)[C@@H](NC(=O)[C@@H]2C[C@@H](F)CN2C(=O)C2(C(F)(F)F)CCC2)C2CC2)CC=CCCCCNC(=O)[C@H](Cc2cc(Cl)cnc2OC(C)C)N(C)C1=O (single isomer, unassigned) [Example 136-P2] | 0.64 | 0.45 | 0.08 | 6.67 | 0.12 | 0.02
CC[C@H](NC(=O)C1(C(F)(F)F)CC1)C(=O)N[C@@H](C)C(=O)N[C@H]1CC=CCCCCNC(=O)[C@H](Cc2cc(Cl)ccc2Cl)N(C)C(=O)[C@H](CC(C)C)NC1=O [Example 1, N—((S)-1-(((S)-1-(((3S,6S,9S)-3-(2,5-dichlorobenzyl)-6-isobutyl-4-methyl-2,5,8-trioxo-1,4,7-triazacyclohexadec-11-en-9-yl)amino)-1-oxopropan-2-yl)amino)-1-oxobutan-2-yl)-1-(trifluoromethyl)cyclopropane-1-carboxamide] | 6.61 | 4 | 0.21 | 14.6 | 0.44 | 0.02
CC(C)C[C@@H]1NC(=O)[C@@H](N(C)C(=O)[C@@H](NC(=O)[C@@H]2C[C@@H](F)CN2C(=O)C2(C(F)(F)F)CC(F)(F)C2)C2CC2)CC=CCCCCNC(=O)[C@H](Cc2cc(Cl)ccc2C2=CCOCC2)N(C)C1=O [Example 17] | 0.56 | 0.24 | 0.09 | 17.9 | 4.11 | 0.02
CC(=O)N1CC=C(c2ccc(Cl)cc2C[C@H]2C(=O)NCCCCC=CC[C@H](N(C)C(=O)[C@@H](NC(=O)[C@@H]3C[C@@H](F)CN3C(=O)C3(C(F)(F)F)CC(F)(F)C3)C3CC3)C(=O)N[C@@H](CC(C)C)C(=O)N2C)CC1 [Example 18] | 0.34 | 0.17 | 0.09 | 9.03 | 6.19 | 0.02
CC(=O)N1CC=C(c2ccc(Cl)cc2C[C@H]2C(=O)NCCCCCCC[C@H](N(C)C(=O)[C@@H](NC(=O)[C@@H]3C[C@@H](F)CN3C(=O)C3(C(F)(F)F)CC(F)(F)C3)C3CC3)C(=O)N[C@@H](CC(C)C)C(=O)N2C)CC1 [Example 20] ({cBuCO(3,3-F2-1-CF3)}-[Pro(trans-4-F)][Gly(cPr)][NMe(hhhLys)]L[X90]; lactam 3-C) | 0.02 | 0.02 | 0.02 | 11.1 | 1.52 | 0.02
CC(C)C[C@@H]1NC(=O)[C@@H](N(C)C(=O)[C@@H](NC(=O)[C@@H]2C[C@@H](F)CN2C(=O)C2(C(F)(F)F)CC(F)(F)C2)C2CC2)CCCCCCCNC(=O)[C@H](Cc2cc(Cl)ccc2C2=CCOCC2)N(C)C1=O [Example 21] ({cBuCO(3,3-F2-1-CF3)}-[Pro(trans-4-F)][Gly(cPr)][NMe(hhhLys)]L[X104]; lactam 3-C) | 0.02 | 0.01 | 0.02 | 6.85 | 1.13 | 0.02
CC(C)C[C@@H]1NC(=O)[C@@H](N(C)C(=O)[C@@H](NC(=O)[C@@H]2C[C@@H](F)CN2C(=O)C2(C(F)(F)F)CC(F)(F)C2)C2CC2)CC=CCCCCNC(=O)[C@H](Cc2cc(Cl)ccc2-c2cnn(C)c2)N(C)C1=O [Example 26] | 0.17 | 0.11 | 0.06 | 8.74 | 1.17 | 0.02
CC(C)C[C@@H]1NC(=O)[C@@H](N(C)C(=O)[C@@H](NC(=O)[C@@H]2C[C@@H](F)CN2C(=O)C2(C(F)(F)F)CC(F)(F)C2)C2CC2)CC=CCCCCNC(=O)[C@H](Cc2cc(Cl)ccc2-c2cnn(C3COC3)c2)N(C)C1=O [Example 27] | 0.37 | 0.09 | 0.09 | 11.4 | 1.9 | 0.02
CC(C)C[C@@H]1NC(=O)[C@@H](N(C)C(=O)[C@@H](NC(=O)[C@@H]2C[C@@H](F)CN2C(=O)C2(C(F)(F)F)CCC2)C2CC2)CC=CCCCCNC(=O)[C@H](Cc2cc(Cl)ccc2-c2cnn(C3COC3)c2)N(C)C1=O [Example 32] | 0.25 | 0.14 | 0.05 | 11.8 | 0.59 | 0.02
CC(C)C[C@@H]1NC(=O)[C@@H](N(C)C(=O)[C@@H](NC(=O)[C@@H]2C[C@@H](F)CN2C(=O)C2(C(F)(F)F)CCC2)C2CC2)CC=CCCCCNC(=O)[C@H](Cc2cc(Cl)ccc2-c2cnn(CCO)c2)N(C)C1=O [Example 33] | 0.17 | 0.09 | 0.02 | 15.6 | 0.27 | 0.02
CC(C)C[C@@H]1NC(=O)[C@@H](N(C)C(=O)[C@@H](NC(=O)[C@@H]2C[C@@H](F)CN2C(=O)C2(C(F)(F)F)CCC2)C2CC2)CC=CCCCCN(C)C(=O)[C@H](Cc2cc(Cl)ccc2-c2cnn(C)c2)N(C)C1=O [Example 34] | 0.11 | 0.06 | 0.02 | 13.1 | 0.21 | 0.02
CC(C)C[C@@H]1NC(=O)[C@@H](N(C)C(=O)[C@@H](NC(=O)[C@@H]2C[C@@H](F)CN2C(=O)C2(C(F)(F)F)CCC2)C2CC2)CC=CCCCCN(C)C(=O)[C@H](Cc2cc(Cl)ccc2-c2cncnc2)N(C)C1=O [Example 35] | 0.35 | 0.17 | 0.12 | 12.4 | 1.69 | 0.02
CC(=O)N1CC=C(c2ccc(Cl)cc2C[C@H]2C(=O)N(C)CCCCC=CC[C@H](N(C)C(=O)[C@@H](NC(=O)[C@@H]3C[C@@H](F)CN3C(=O)C3(C(F)(F)F)CCC3)C3CC3)C(=O)N[C@@H](CC(C)C)C(=O)N2C)CC1 [Example 36] | 0.35 | 0.11 | 0.03 | 16 | 0.82 | 0.02
CC(C)C[C@@H]1NC(=O)[C@@H](N(C)C(=O)[C@@H](NC(=O)[C@@H]2C[C@@H](F)CN2C(=O)C2(C(F)(F)F)CCC2)C2CC2)CC=CCCCCN(C)C(=O)[C@H](Cc2cc(F)ccc2-c2cnn(C)c2)N(C)C1=O [Example 40] | 0.05 | 0.06 | 0.05 | 15.4 | 0.24 | 0.02
COCCn1cc(-c2ccc(Cl)cc2C[C@H]2C(=O)NCCCCC=CC[C@H](N(C)C(=O)[C@@H](NC(=O)[C@@H]3C[C@@H](F)CN3C(=O)C3(C(F)(F)F)CC(F)(F)C3)C3CC3)C(=O)N[C@@H](CC(C)C)C(=O)N2C)cn1 [Example 43] | 0.04 | 0.03 | 0.04 | 8.57 | 0.37 | 0.02
COCCn1cc(-c2ccc(Cl)cc2C[C@H]2C(=O)N(C)CCCCC=CC[C@H](N(C)C(=O)[C@@H](NC(=O)[C@@H]3C[C@@H](F)CN3C(=O)C3(C(F)(F)F)CC(F)(F)C3)C3CC3)C(=O)N[C@@H](CC(C)C)C(=O)N2C)cn1 [Example 44] | 0.04 | 0.02 | 0.03 | 6.6 | 0.27 | 0.02
CC(C)C[C@@H]1NC(=O)[C@@H](N(C)C(=O)[C@@H](NC(=O)[C@@H]2C[C@@H](F)CN2C(=O)C2(C(F)(F)F)CC(F)(F)C2)C2CC2)CC=CCCCCN(C)C(=O)[C@H](Cc2cc(F)ccc2C2=CCC(O)CC2)N(C)C1=O (stereo partly drawn) [Example 47] | 0.13 | 0.03 | 0.04 | 12.9 | 0.8 | 0.02
CC(C)C[C@@H]1NC(=O)[C@@H](N(C)C(=O)[C@@H](NC(=O)[C@@H]2C[C@@H](F)CN2C(=O)C2(C(F)(F)F)CCC2)C2CC2)CC=CCCCCN(C)C(=O)[C@H](Cc2cc(Cl)ccc2Cl)N(C)C1=O [Example 48] | 0.05 | 0.04 | 0.08 | 15.8 | 0.13 | 0.02
CC(C)C[C@@H]1NC(=O)[C@@H](N(C)C(=O)[C@@H](NC(=O)[C@@H]2C[C@@H](F)CN2C(=O)C2(C(F)(F)F)CC(F)(F)C2)C2CC2)CCCCCCCN(C)C(=O)[C@H](Cc2cc(Cl)ccc2-c2cnn(C)c2)N(C)C1=O [Example 49] ({cBuCO(3,3-F2-1-CF3)}-[Pro(trans-4-F)][Gly(cPr)][NMehhhLys(Me)]L[X22]; lactam 3-C) | 0.01 | 0.01 | 0.02 | 11.5 | 0.35 | 0.02
